The NIST ThermoML archive (doi:10.1016/j.tca.2014.06.031)

How the values were obtained:
[1] = xn = mol fraction of the nth substance listed; conditions: 101 kPa, Liquid; for speed of sound: Frequency=3 MHz, Sing-around technique in a fixed-path interferometer; for mass density: Vibrating tube method
[2] = refractive index (Na D-line) (dimensionless); xn = mol fraction of the nth substance listed; conditions: 101 kPa, Liquid, Standard Abbe refractometry

CCCCCCC(=O)O [heptanoic acid] + CCCCC(=O)O
Conditions | mass density, [1] [kg/m3] | refractive index, [2] | speed of sound, [1] [m/s]
293.15 K, x1 = 0.0641 | 937.59 | 1.4099 | 1238.8
293.15 K, x1 = 0.1207 | 936.02 | 1.4111 | 1242.9
293.15 K, x1 = 0.2317 | 933.14 | 1.41293 | 1250.6
293.15 K, x1 = 0.3413 | 930.46 | 1.41469 | 1257.9
293.15 K, x1 = 0.4383 | 928.25 | 1.41617 | 1264.1
293.15 K, x1 = 0.5402 | 926.08 | 1.4176 | 1270.3
293.15 K, x1 = 0.6442 | 923.97 | 1.41903 | 1276.3
293.15 K, x1 = 0.7342 | 922.25 | 1.42021 | 1281.4
293.15 K, x1 = 0.8259 | 920.58 | 1.42135 | 1286.4
293.15 K, x1 = 0.9173 | 919 | 1.42244 | 1291.2
293.15 K, x1 = 0.962 | 918.26 | 1.42297 | 1293.4
293.15 K, x1 = 1 | 917.65 | 1.42336 | 1295.4
298.15 K, x1 = 0.0641 | 933.06 | 1.40789 | 1220.8
298.15 K, x1 = 0.1207 | 931.51 | 1.40904 | 1225
298.15 K, x1 = 0.2317 | 928.68 | 1.41092 | 1232.8
298.15 K, x1 = 0.3413 | 926.05 | 1.41267 | 1240.1
298.15 K, x1 = 0.4383 | 923.88 | 1.41413 | 1246.3
298.15 K, x1 = 0.5402 | 921.74 | 1.41562 | 1252.5
298.15 K, x1 = 0.6442 | 919.68 | 1.41705 | 1258.6
298.15 K, x1 = 0.7342 | 917.98 | 1.4182 | 1263.7
298.15 K, x1 = 0.8259 | 916.35 | 1.41936 | 1268.7
298.15 K, x1 = 0.9173 | 914.79 | 1.42048 | 1273.5
298.15 K, x1 = 0.962 | 914.07 | 1.42099 | 1275.8
298.15 K, x1 = 1 | 913.47 | 1.42138 | 1277.7
303.15 K, x1 = 0.0641 | 928.52 | 1.40585 | 1202.7
303.15 K, x1 = 0.1207 | 926.99 | 1.40698 | 1206.9
303.15 K, x1 = 0.2317 | 924.22 | 1.40886 | 1214.7
303.15 K, x1 = 0.3413 | 921.64 | 1.41062 | 1222.1
303.15 K, x1 = 0.4383 | 919.51 | 1.41208 | 1228.3
303.15 K, x1 = 0.5402 | 917.4 | 1.41356 | 1234.6
303.15 K, x1 = 0.6442 | 915.38 | 1.41498 | 1240.7
303.15 K, x1 = 0.7342 | 913.71 | 1.4162 | 1245.8
303.15 K, x1 = 0.8259 | 912.11 | 1.41733 | 1250.8
303.15 K, x1 = 0.9173 | 910.58 | 1.41842 | 1255.7
303.15 K, x1 = 0.962 | 909.87 | 1.41896 | 1257.9
303.15 K, x1 = 1 | 909.29 | 1.41935 | 1259.9
308.15 K, x1 = 0.0641 | 923.98 | 1.40383 | 1184.8
308.15 K, x1 = 0.1207 | 922.48 | 1.40496 | 1189
308.15 K, x1 = 0.2317 | 919.75 | 1.40684 | 1196.9
308.15 K, x1 = 0.3413 | 917.23 | 1.40857 | 1204.2
308.15 K, x1 = 0.4383 | 915.14 | 1.41004 | 1210.5
308.15 K, x1 = 0.5402 | 913.07 | 1.41151 | 1216.8
308.15 K, x1 = 0.6442 | 911.08 | 1.41294 | 1223
308.15 K, x1 = 0.7342 | 909.45 | 1.41413 | 1228.1
308.15 K, x1 = 0.8259 | 907.87 | 1.41531 | 1233.1
308.15 K, x1 = 0.9173 | 906.38 | 1.41643 | 1238
308.15 K, x1 = 0.962 | 905.68 | 1.41695 | 1240.3
308.15 K, x1 = 1 | 905.11 | 1.41733 | 1242.2
313.15 K, x1 = 0.0641 | 919.44 | 1.40175 | 1167
313.15 K, x1 = 0.1207 | 917.97 | 1.40283 | 1171.2
313.15 K, x1 = 0.2317 | 915.29 | 1.40471 | 1179.1
313.15 K, x1 = 0.3413 | 912.82 | 1.40649 | 1186.6
313.15 K, x1 = 0.4383 | 910.77 | 1.40796 | 1192.9
313.15 K, x1 = 0.5402 | 908.74 | 1.40944 | 1199.2
313.15 K, x1 = 0.6442 | 906.79 | 1.41086 | 1205.4
313.15 K, x1 = 0.7342 | 905.19 | 1.41209 | 1210.5
313.15 K, x1 = 0.8259 | 903.64 | 1.41324 | 1215.6
313.15 K, x1 = 0.9173 | 902.17 | 1.41437 | 1220.4
313.15 K, x1 = 0.962 | 901.49 | 1.4149 | 1222.7
313.15 K, x1 = 1 | 900.94 | 1.4153 | 1224.7
